Tested on: immunoglobulin light chain protein WIL-FL T46L
Assay: Differential scanning fluorimetry (thermal shift) assay
Assay type: binding
Conditions: Table B; temperature shift [Tm]compound-[Tm]vehicle; recombinant WIL-FL T46L

Row | SMILES | DSF
1 | Cc1cc(N2CC[C@](C)(c3ccccc3)C2)cn2nc(C(=O)N3CCC4(CCC(c5cccc(C(=O)O)n5)C4)C3)nc12 (stereo partly drawn) [Compound 640, 6-[2-[8-methyl-6-[(3R)-3-methyl-3-phenyl-pyrrolidin-1-yl]-[1,2,4]triazolo[1,5-a]pyridine-2-carbonyl]-2-azaspiro[4.4]nonan-8-yl]pyridine-2-carboxylic acid] | ***** (>2.5° C.=*****)
2 | Cc1cc(N2CC[C@](C)(c3ccccc3)C2)cn2nc(C(=O)NC3CC4(CCN(c5cccc(C(=O)O)n5)CC4)C3)nc12 [Compound 642, 6-[2-[[8-methyl-6-[(3R)-3-methyl-3-phenyl-pyrrolidin-1-yl]-[1,2,4]triazolo[1,5-a]pyridine-2-carbonyl]amino]-7-azaspiro[3.5]nonan-7-yl]pyridine-2-carboxylic acid] | ***** (>2.5° C.=*****)
3 | Cc1cc(N2CC[C@](C)(c3ccccc3)C2)cn2nc(C(=O)N3C[C@@H]4CN(c5cccc(C(=O)O)n5)C[C@]4(C)C3)nc12 [Compound 643] | ***** (>2.5° C.=*****)
4 | Cc1cc(N2CC[C@](C)(c3ccccc3)C2)cn2nc(C(=O)N3C[C@@H]4CN(c5cccc(C(=O)O)n5)C[C@H]4C3)nc12 [Compound 644] | ***** (>2.5° C.=*****)
5 | Cc1cc(N2CC[C@](C)(c3ccccc3)C2)cn2nc(C(=O)N3CC4CCN(c5cccc(C(=O)O)n5)C4C3)nc12 (stereo partly drawn) [Compound 645] | ***** (>2.5° C.=*****)
6 | Cc1cc(N2CC[C@](C)(c3ccccc3)C2)cn2nc(C(=O)NC3CN(c4cccc(C(=O)O)n4)CC34COC4)nc12 (stereo partly drawn) [Compound 646] | ***** (>2.5° C.=*****)
7 | Cc1cc(N2CC[C@](C)(c3ccccc3)C2)cn2nc(C(=O)NCC3CCN(c4cccc(C(=O)O)n4)CC3)nc12 [Compound 647] | ***** (>2.5° C.=*****)
8 | Cc1cc(N2CC[C@](C)(c3ccccc3)C2)cn2nc(C(=O)NC3CC4(CCC4Nc4cccc(C(=O)O)n4)C3)nc12 (stereo partly drawn) [Compound 662, 6-((6-(8-methyl-6-((R)-3-methyl-3-phenylpyrrolidin-1-yl)-[1,2,4]triazolo[1,5-a]pyridine-2-carboxamido)spiro[3.3]heptan-1-yl)amino)picolinic acid] | ***** (>2.5° C.=*****)
9 | Cc1nc(N2CC3(CC(NC(=O)c4nc5c(C)cc(N6CC[C@](C)(c7ccccc7)C6)cn5n4)C3)C2)ccc1C(=O)O [Compound 663] | ***** (>2.5° C.=*****)
10 | Cc1cc(N2CC[C@](C)(c3ccccc3)C2)cn2nc(C(=O)NC3CN(c4cccc(C(=O)O)n4)C4(COC4)C3)nc12 (stereo partly drawn) [Compound 664, 6-[7-[[8-methyl-6-[(3R)-3-methyl-3-phenyl-pyrrolidin-1-yl]-[1,2,4]triazolo[1,5-a]pyridine-2-carbonyl]amino]-2-oxa-5-azaspiro[3.4]octan-5-yl]pyridine-2-carboxylic acid] | ***** (>2.5° C.=*****)
11 | Cc1cc(N2CC[C@](C)(c3ccccc3)C2)cn2nc(C(=O)N3CC4(C3)CN(c3cccc(C(=O)O)n3)CCO4)nc12 [Compound 665] | ***** (>2.5° C.=*****)
12 | CO[C@H]1CN(c2cccc(C(=O)O)n2)CC1NC(=O)c1nc2c(C)cc(N3CC[C@](C)(c4ccccc4)C3)cn2n1 (stereo partly drawn) [Compound 666] | ***** (>2.5° C.=*****)
13 | Cc1cc(N2CC[C@](C)(c3ccccc3)C2)cn2nc(C(=O)NC3CC4(CCN4c4cccc(C(=O)O)n4)C3)nc12 (stereo partly drawn) [Compound 667] | ***** (>2.5° C.=*****)
14 | Cc1cc(N2CC[C@](C)(c3ccccc3)C2)cn2nc(C(=O)NC3CC4CCC3N4c3cccc(C(=O)O)n3)nc12 (stereo partly drawn) [Compound 668] | ***** (>2.5° C.=*****)
15 | Cc1cc(N2CC[C@](C)(c3ccccc3)C2)cn2nc(C(=O)NC3COCC4(C3)CN(c3cccc(C(=O)O)n3)C4)nc12 (stereo partly drawn) [Compound 669, 6-(8-(8-methyl-6-((R)-3-methyl-3-phenylpyrrolidin-1-yl)-[1,2,4]triazolo[1,5-a]pyridine-2-carboxamido)-6-oxa-2-azaspiro[3.5]nonan-2-yl)picolinic acid] | ***** (>2.5° C.=*****)

From patent US20260285857A1, “BICYCLIC AND HETEROCYCLIC AMIDE COMPOUNDS” (priority 2024, published 2026)
